# Reference: US5244892A, “Cephem compounds, and antibacterial agents” (Kyorin Pharmaceutical Co., Ltd., priority 1990, dated 1993)
# Where two headings read alike, the source gives them in different places.
# What was measured:
# Assay in all cases: in vitro antibacterial activity (minimum inhibitory concentration), standard method of the Japan Chemotherapy Society
# Assay type in all cases: cell-based
# [1] = system: Pseudomonas aeruginosa IFO 12689
# S. epidermidis IID 866 = conditions: Staphylococcus epidermidis
# [2] = system: Streptococcus pneumoniae Type III; conditions: read-out: Minimum inhibitory concentration for growth
# [3] = system: Klebsiella pneumoniae 1-220 S; conditions: 1220S, read-out: Minimum inhibitory concentration for growth
# [4] = system: Escherichia coli ATCC 10536; conditions: ATCC10536, Gram (-), 10^6 cells/ml, read-out: Minimum inhibitory concentration for growth
# [5] = system: Staphylococcus aureus 209P; conditions: read-out: Minimum inhibitory concentration for growth
# [6] = IFO12689, Gram (-), 10^6 cells/ml, read-out: Minimum inhibitory concentration for growth
# [7] = IID866, Gram (+), 10^6 cells/ml, read-out: Minimum inhibitory concentration for growth
SMILES,"MIC ([1]; IFO12689, read-out: Minimum inhibitory concentration for growth) [µg/mL]","MIC (S. epidermidis IID 866; IID866, read-out: Minimum inhibitory concentration for growth) [µg/mL]",MIC [2] [µg/mL],MIC [3] [ng/mL],MIC [4] [ng/mL],MIC [5] [µg/mL],"MIC [1, 6] [µg/mL]",MIC (S. epidermidis IID 866; [7]) [µg/mL],"MIC ([2]; Gram (+), 10^6 cells/ml) [µg/mL]","MIC ([3]; Gram (-), 10^6 cells/ml) [ng/mL]","MIC ([5]; Gram (+), 10^6 cells/ml) [µg/mL]"
"CC(C)(O/N=C(\C(=O)N[C@@H]1C(=O)N2C(C(=O)[O-])=C(C[n+]3ccccc3)CS[C@H]12)c1csc(N)n1)C(=O)O [CAZ, ceftazidime, reference compound]",3.13,3.13,0.39,200,50,3.13,–,–,–,–,–
"CO/N=C(\C(=O)N[C@@H]1C(=O)N2C(C(=O)O)=C(COC(C)=O)CS[C@H]12)c1csc(N)n1 [CTX, cefotaxime, reference compound]",–,–,–,–,25,–,25,0.78,0.1,50,0.78
"CO/N=C(\C(=O)N[C@@H]1C(=O)N2C(C(=O)O)=C(CSc3cc(=O)c4cc(O)c(O)cc4s3)CS[C@H]12)c1csc(N)n1 [Example 75, Sodium 7β-[(Z)-2-(2-aminothiazole-4-yl)-2-methoxyiminoacetamido]-3-(6,7-dihydroxy-4-oxo-4H-1-benzothiopyran-2-yl) thiomethyl-3-cephem-4-carboxylate]",–,–,–,–,≤ 6.3,–,0.39,0.78,0.1,≤ 6.3,0.39
"CO/N=C(\C(=O)N[C@@H]1C(=O)N2C(C(=O)O)=C(CSc3cc(=O)c4cc(O)c(O)cc4s3)CS[C@H]12)c1nsc(N)n1 [Example 90, Sodium 7β[(Z)-2-(5-amino-1,2,4-thiadiazole-3-yl)-2-methoxyiminoacetamido]-3-(6,7-dihydroxy-4-oxo-4H-1-benzothiopyran-2-yl) thiomethyl-3-cephem-4-carboxylate]",–,–,–,–,≤ 6.3,–,0.05,1.56,0.1,≤ 6.3,1.56
"Nc1nc(/C(=N/OCC(=O)O)C(=O)N[C@@H]2C(=O)N3C(C(=O)O)=C(CSc4sc5cc(O)c(O)cc5c(=O)c4Br)CS[C@H]23)cs1 [Example 100, Disodium 7β-[(Z)-2-(2-aminothiazole-4-yl)-2-carboxymethoxyiminoacetamido]-3-(3-bromo-6,7-dihydroxy-4-oxo-4H-1-benzothiopyran-2-yl)thiomethyl-3-cephem-4-carboxylate]",–,–,–,–,≤ 6.3,–,0.1,12.5,3.13,≤ 6.3,12.5
"Nc1nc(/C(=N/OCC(=O)O)C(=O)N[C@@H]2C(=O)N3C(C(=O)O)=C(CSc4cc(=O)c5cc(O)c(O)cc5s4)CS[C@H]23)cs1 [Example 108, Disodium 7β-[(Z)-2-(2-aminothiazole-4-yl)-2-carboxymethoxyiminoacetamido]-3-(6,7-dihydroxy-4-oxo-4H-1-benzothiopyran-2-yl)thiomethyl-3-cephem-4-carboxylate]",–,–,–,–,≤ 6.3,–,0.05,12.5,0.78,≤ 6.3,6.25
"CC(C)(O/N=C(\C(=O)N[C@@H]1C(=O)N2C(C(=O)O)=C(CSc3cc(=O)c4cc(O)c(O)cc4s3)CS[C@H]12)c1csc(N)n1)C(=O)O [Example 110, Disodium 7β-[(Z)-2-(2-aminothiazole-4-yl)-2-(1-carboxy-1-methylethoxy)iminoacetamido]-3-(6,7-dihydroxy-4-oxo-4H-1-benzothiopyran-2-yl)thiomethyl-3-cephem-4-carboxylate]",–,–,–,–,≤ 6.3,–,0.05,12.5,0.78,≤ 6.3,6.25
